Source: article PMC4279406, “Simultaneous targeting of PI3Kδ and a PI3Kδ-dependent MEK1/2-Erk1/2 pathway for therapy in pediatric B-cell acute lymphoblastic leukemia” (Oncotarget, 2014)
Where two headings read alike, the source gives them in different places.

Columns and labels:
Rh30-Myr-p110δ cells = assay: Akt phosphorylation in isogenic Rh30-Myr-p110 cells (Western blot); type: cell-based, human; details: for EC50 / IC50: Homo sapiens; for EC50: Rh30-Myr-p110δ cells; for IC50: serum-free 12 h, compound 1 h, band intensity, mean of three experiments
Text: To assess the selectivity of X-370 in the context of an isogenic cellular background, we generated a panel of Rh30 human rhabdomyosarcoma cell lines each of which stably expresses a single myristoylated (Myr)-epitope tagged p110 human class I PI3K catalytic subunit, termed as Rh30-Myr-p110α, Rh30-Myr-p110β, Rh30-Myr-p110γ or Rh30-Myr-p110δ. In these cells, endogenous PI3K is not activated under serum-free culture conditions, whereas the ectopically expressed p110 isoforms are membrane-anchored and constitutively active due to myristoylation at N-terminal. Utilizing this cell panel, isoform-specific PI3K activity can be determined for any given inhibitor[25]. These cells were treated with X-370 and phosphorylated Akt was detected as the readout of PI3K activity. X-370 inhibited phosphorylation of Akt at both Thr308 and Ser473 in a dose-dependent manner in four tested cell lines (Figure 2A). […] Similar property was also observed in CAL-101 (Figure S2).
Cell lysates were probed with indicated antibodies. The IC50 values were calculated based on relative band intensity measured with ImageQuant™ TL (GE Healthcare Life Sciences, Piscataway, NJ) (B). Data shown are mean values from three independent experiments. (C, D, E, F) X-370 blocked stimuli-triggered PI3Kδ activation. MEF cells and THP-1 were starved in serum-free medium for 12 h or 4 h respectively and X-370 were added for an additional 1 h treatment following stimulation of IGF-1 at 100 ng/ml for MEF cells (C), LPA at 10 μM for MEF cells (D), MCP-1 at 100ng/ml for THP-1 (E) and M-CSF at 50 ng/ml for THP-1 (F). Similar results were derived from 3 independent experiments. TEXT PRINTED IN THE PICTURE: (B) X-370: IC50 (μM) in Rh30-Myr-p110s, Akt pT308, PI3Kα: 0.68; IC50 (μM) in Rh30-Myr-p110s, Akt pT308, PI3Kβ: 0.4; IC50 (μM) in Rh30-Myr-p110s, Akt pT308, PI3Kγ: 0.46; IC50 (μM) in Rh30-Myr-p110s, Akt pT308, PI3Kδ: 0.032; IC50 (μM) in Rh30-Myr-p110s, Akt pS473, PI3Kα: 0.53; IC50 (μM) in Rh30-Myr-p110s, Akt pS473, PI3Kβ: 0.29; IC50 (μM) in Rh30-Myr-p110s, Akt pS473, PI3Kγ: 0.23; IC50 (μM) in Rh30-Myr-p110s, Akt pS473, PI3Kδ: 0.02 DOUBTS OF THE COPYIST ABOUT THIS PICTURE: Panel B prints no substance label in the table itself; the label X-370 is taken from the other panels of the same picture, where it is the only substance printed. […]
(§1) Cells were treated as indicated conditions and then subjected to lysate to perform standard Western blot as described previously1. Briefly, whole-cell lysates and SDS-loading buffer diluted cell fractions were analyzed on SDS-PAGE gels. Transfer to nitrocellulose membranes, nonfat milk blocking, probing with indicated primary antibodies and the corresponding HRP-conjugated second antibodies.
Chemiluminescence were performed and captured using ImageQuant LAS 4000 (GE healthcare Life Sciences, Piscataway, NJ, USA) and band intensity was measure both with ImageQuant™ TL (GE Healthcare Life Sciences) 2. […]
(also on this page, place not known: PI3Kδ -dependent MEK1/2 - B -cell previously 1. whole -cell SDS -loading SDS -PAGE HRP -conjugated (G E A B Val828 Trp760 Thr750 Met752 Tyr813 affinity pocket specificity pocket hinge Glu826 CAL-101 X-370) […]
(1 picture or pasted object on this page, not shown here) […]
in serum-free medium for 12 h and then incubated with serially diluted CAL -101 for an additional 1 h.
Cell lysates were probed with indicated antibodies. The IC50 values were calculated based on relative band intensity measured with ImageQuant™ TL (GE Healthcare Life Sciences, Piscataway, NJ). Data shown are mean values from three independent experiments.
Table S1: Inhibitory activity of X-370 against protein kinases […]
kinome at 10 μM. The relative kianse activity left in the presence of 10 μM were shown (Mi llipore […]
Kinase activity (% of control) Kinase activity (% of control) Kinase activity (% of control) […]
CDK1/cyclinB 97 Lck activated 89 Ret 125 […]

Raji cells = assay: Caspase 3/7 activity assay; type: cell-based, human
Experimental: Simultaneous targeting of PI3Kδ and a PI3Kδ-dependent MEK1/2-Erk1/2 pathway for therapy in pediatric B-cell acute lymphoblastic […]
as §1
Chemiluminescence were performed and captured using ImageQuant LAS 4000 (GE healthcare Life Sciences, Piscataway, NJ, USA) and band intensity was measure both with ImageQuant™ TL (GE Healthcare Life Sciences) 2.
Caspase 3/7 activity assay
Raji cells were treated with or without X-370 at 1 μM, 5μM and 10 μM for 24, 48 and 72 hours, thenwere measured using the Caspase-Glo® 3/7 Assay (Promega, US) following the protocol and relative caspase-3/7 activity was normalized to cell number which DMSO control was the base line.
5-bromo-2'-deoxyuridine (BrdU) incorporation Assay
5-bromo-2'-deoxyuridine (BrdU) incorporation was performed using FITC BrdU Flow Kit (BD Pharmingen, San Diego, CA) according to the provided protocol.
Figure S1;. CAL-101 docked to the crystal structure of PI3Kδ. […]

fold lower EC50 in Rh30-Myr-p110δ than in isogenic Rh30-Myr-p110α/β/γ cells (Rh30-Myr-p110δ cells; Akt pT308 and pS473): at least 10 fold
EC50 (Rh30-Myr-p110δ cells; read-out: EC50, Akt phosphorylation (Akt pS473)): 20 nM
EC50 (Rh30-Myr-p110δ cells; read-out: EC50, Akt phosphorylation (Akt pT308)): 32 nM
IC50 (Rh30-Myr-p110δ cells; read-out: IC50 (μM) in Rh30-Myr-p110s, Akt pS473, PI3Kδ): 0.02 µM
IC50 (Rh30-Myr-p110δ cells; read-out: IC50 (μM) in Rh30-Myr-p110s, Akt pT308, PI3Kδ): 0.032 µM
SMILES: O=C(N1CCCC1)N1CCC(n2cnc3c(-n4c(C(F)F)nc5ccccc54)nc(N4CCOCC4)nc32)CC1 [X-370]
concentration at which caspase 3/7 activity increased (Raji cells): ≥ 5 µM
